Laboratory results as given in patent US12414960B2, “Analogues of oleuropein and oleacein and uses thereof” (Attica Sciences Ltd., priority 2020, dated 2025).

Columns and labels:
[1] = Deoxyribose degradation assay (hydroxyl radical scavenging); assay type: biochemical; details: NS = not statistically significant
In short: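 Hydroxyl radicals from Fenton's reaction degrade 2-deoxyribose. Scavenging is measured as inhibition of this oxidation, read spectrophotometrically as pink chromogen absorbance at 532 nm.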

[2] = test system: MCF-7 ER+ breast cancer cells; experiment: XTT cell growth assay, MCF-7 ER+; assay type: cell-based, human; details: NS = not statistically significant; for inhibition at 50 µM: Homo sapiens, MCF7, 24 h, read-out: Effectiveness to suppress MCF7 cell growth (cell growth inhibition)
In short: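 MCF-7 ER+ cells grown 24 h in DMEM, then given 5, 10 or 50 μM compound in serum-free DMEM for 24 h. XTT reagent added for 4 h. Absorbance read at 450 nm with 630 nm reference; serum-free DMEM alone as negative control.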

[3] = test system: MDA-MB-231 triple negative breast cancer cells; experiment: XTT cell growth assay, MDA-MB-231; assay type: cell-based, human; details: NS = not statistically significant; for inhibition at 50 µM: Homo sapiens, MDA-MB-231, 24 h, read-out: Effectiveness to suppress MDA-MB-231 cell growth (cell growth inhibition)
In short: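 Cells grown 24 h in DMEM, then exposed 24 h to 5, 10 and 50 μM compound in serum-free DMEM. Viability read by XTT reduction to formazan after 4 h, absorbance at 450 nm with 630 nm reference; serum-free DMEM alone as negative control.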

[4] = ABTS radical cation scavenging assay; assay type: biochemical; details: NS = not statistically significant
From the text: The method of estimating antioxidant capacity, based on the ability to interact with the ABTS.+ radical cation was first performed by Miller et al. in 1993 (Miller, Nicholas et al., Clinical Science, 1993, 84: 407-412, “A novel method for measuring the antioxidant capacity and its application to monitoring the antioxidant status in premature neonates”). The mechanism of interaction of the antioxidant agents to be examined with the ABTS.+ radical is similar to that of the DPPH. radical, which can be inactivated either by the addition of an electron or by the addition of a hydrogen atom. However, unlike the DPPH. radical, which is a stable radical from the beginning, the ABTS.+ radical must be produced by the oxidation of ABTS. Thus, in order to estimate the antioxidant capacity of a substance, the formation of the ABTS.+ radical must first precede and the addition of the substance to be examined must follow. The addition of the antioxidant agent is performed after the production of the root ABTS.+ to avoid the interaction of the antioxidant agents with the oxidizing agents used for the oxidation of ABTS.
The oxidation of ABTS takes place either through chemical reactions with various reagents or through the action of enzymes such as peroxidases. The ABTS.+ radical from the moment it is formed is stable, has a green color and absorbs at 730 nm. When a substance with antioxidant activity is added to the solution, then the ABTS.+ radical is reduced by the addition of a hydrogen (or electron) atom, resulting in reduced visual absorption.
To assess the antioxidant capacity of the samples, the oxidation of ABTS was performed enzymatically through the action of horseradish peroxidase (HRP), in the presence of H2O2 (FIG. 3)
The anti-oxidant capacity of the GS compounds was evaluated by performing the ABTS assay as previously described (Kouka, Paraskevi et al., Oxid Med Cell Longev. 2019, Article ID 1870965). Briefly, in a total reaction volume of 1 mL in distilled water (dH2O), ABTS.^+ (1 mM), H2O2 (30 μM), and horseradish peroxidase (HRP) (6 μM) in 50 mM phosphate-buffered saline were added. The solution was incubated for 45 min at room temperature (RT) in the dark. Finally, 10 μL of the tested GS compound at various concentrations was added, and the absorbance was monitored on a Hitachi U-1900 radio beam spectrophotometer (serial no. 2023-029; Hitachi Ltd.) at 730 nm. In each experiment, a blank without the HRP was used, while the ABTS.^+ radical solution without the extract was used as the control. The RSC percentage of the tested extracts was calculated using the following equation: RSC (%)=[(ODcontrol−ODcompound)/ODcontrol]×100, where ODcontrol and OD sample are the optical density (OD) values of the control and the test sample, respectively.

SMILES	Deoxyribose Degradation Assay IC50 [1] [μg extract/mL]	inhibition at 50 µM [2] [%]	inhibition at 50 µM [3] [%]	ABTS Radical Cation Scavenging Assay IC50 [4] [μg extract/mL]	Effectiveness to suppress MDA-MB-231 cell growth (cell growth inhibition) ([3]; 50 uM, 24 h)	Effectiveness to suppress MCF7 cell growth (cell growth inhibition) ([2]; 50 uM, 24 h)
C/C=C1/[C@H](OC2OC(CO)C(O)C(O)C2O)OC=C(C(=O)O)[C@H]1CC(=O)OCCc1ccc(O)c(O)c1 (stereo in doubt) [GS6, (2S,4S,E)-4-(2-(3,4-dihydroxyphenethoxy)-2-oxoethyl)-3-ethylidene-2{[(2R,3S,4R,5R,6S)-3,4,5-trihydroxy-6-(hydroxymethyl)tetrahydro-2H-pyran-2-yl]oxy}-3,4dihydro-2H-pyran-5-carboxylic acid]	41.9	24.8	45.3	8.2		
C/C=C1/[C@H](O[C@@H]2O[C@H](CO)[C@@H](O)[C@H](O)[C@H]2O)OC=C(C(=O)OC)[C@H]1CC(=O)OCCc1ccc(O)c(O)c1 [GS1, oleuropein]	80.8		48.3	20.9		
C/C=C(/C=O)[C@@H](CC=O)CC(=O)OCCc1ccc(O)c(O)c1 [GS17, (3S,4E)-4-formyl-3-(2-oxoethyl)-4-hexenoic acid 2-(3,4-dihydroxyphenyl)ethyl ester, reference compound]	21.7	35.2	47.6	8		
C/C=C(/C=O)[C@@H](CC=O)CC(=O)OCCc1ccc(O)cc1 [GS19, (3S,4E)-4-formyl-3-(2-oxoethyl)-4-hexenoic acid 2-(4-hydroxyphenyl)ethyl ester, reference compound]	31.9		55	38		
C/C=C(/C=O)[C@@H](CC=O)CC(=O)OCCOc1ccccc1 [GS24, (3S,4E)-4-formyl-3-(2-oxoethyl)-4-hexenoic acid 2-phenoxyethyl ester]	16.1	60.5	80.5		highest suppressive activity	
C/C=C(/C=O)[C@@H](CC=O)CC(=O)OCCCCCCCCCCCCCCCC [GS26, (3S,4E)-4-formyl-3-(2-oxoethyl)-4-hexenoic acid hexadecyl ester]	21.3	61	47.6			
C/C=C(/C=O)[C@@H](CC=O)CC(=O)SCCc1ccccc1 [GS27, S-phenethyl (3S,4E)-4-formyl-3-(2-oxoethyl)hex-4-enethioate]	16.4	83.2	61.4			best efficacy
C/C=C(/C=O)[C@@H](CC=O)CC(=O)OCCCSC [GS28, (3S,4E)-4-formyl-3-(2-oxoethyl)-4-hexenoic acid 3-(methylthio)propyl ester]	12.3	48.7	47.8			
